Test results taken from patent publication US11066396B2 (priority 2016, dated 2021).
pIC50: −log10 of the molar value.

What was measured:
HDAC5 = HDAC5 (Homo sapiens (Human), UniProt Q9UQL6); details: read-out: HDAC5 IC50
HDAC1 = HDAC1 (Homo sapiens (Human), UniProt Q13547); details: read-out: HDAC1 IC50
HDAC8 = HDAC8 (Homo sapiens (Human), UniProt Q9BY41); details: read-out: HDAC8 IC50
HDAC8, sequence (Q9BY41 whole entry): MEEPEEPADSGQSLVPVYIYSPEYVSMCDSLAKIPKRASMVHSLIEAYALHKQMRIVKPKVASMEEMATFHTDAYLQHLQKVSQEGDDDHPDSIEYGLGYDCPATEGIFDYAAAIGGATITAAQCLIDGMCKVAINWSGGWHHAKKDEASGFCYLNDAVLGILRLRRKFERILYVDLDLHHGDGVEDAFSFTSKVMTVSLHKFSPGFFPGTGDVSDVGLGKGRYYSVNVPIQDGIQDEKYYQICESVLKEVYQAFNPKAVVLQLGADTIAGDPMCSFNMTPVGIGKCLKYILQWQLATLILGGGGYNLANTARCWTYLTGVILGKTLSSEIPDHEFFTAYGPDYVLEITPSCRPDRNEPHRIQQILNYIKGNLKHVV

HDAC5, sequence (Q9UQL6 656-1122): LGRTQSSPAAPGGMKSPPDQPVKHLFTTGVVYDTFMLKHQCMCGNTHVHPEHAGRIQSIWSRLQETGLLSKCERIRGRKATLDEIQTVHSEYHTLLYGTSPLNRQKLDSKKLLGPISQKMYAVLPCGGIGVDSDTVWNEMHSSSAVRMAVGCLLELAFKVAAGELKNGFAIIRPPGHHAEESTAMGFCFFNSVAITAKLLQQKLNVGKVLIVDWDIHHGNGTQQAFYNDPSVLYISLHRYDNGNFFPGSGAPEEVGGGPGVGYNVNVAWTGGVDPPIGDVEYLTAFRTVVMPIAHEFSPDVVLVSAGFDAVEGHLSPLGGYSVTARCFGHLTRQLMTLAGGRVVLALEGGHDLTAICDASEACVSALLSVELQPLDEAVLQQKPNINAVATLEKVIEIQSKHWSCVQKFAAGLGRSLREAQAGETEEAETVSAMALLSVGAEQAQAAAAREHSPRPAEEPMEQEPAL
HDAC1, sequence (Q13547 whole entry): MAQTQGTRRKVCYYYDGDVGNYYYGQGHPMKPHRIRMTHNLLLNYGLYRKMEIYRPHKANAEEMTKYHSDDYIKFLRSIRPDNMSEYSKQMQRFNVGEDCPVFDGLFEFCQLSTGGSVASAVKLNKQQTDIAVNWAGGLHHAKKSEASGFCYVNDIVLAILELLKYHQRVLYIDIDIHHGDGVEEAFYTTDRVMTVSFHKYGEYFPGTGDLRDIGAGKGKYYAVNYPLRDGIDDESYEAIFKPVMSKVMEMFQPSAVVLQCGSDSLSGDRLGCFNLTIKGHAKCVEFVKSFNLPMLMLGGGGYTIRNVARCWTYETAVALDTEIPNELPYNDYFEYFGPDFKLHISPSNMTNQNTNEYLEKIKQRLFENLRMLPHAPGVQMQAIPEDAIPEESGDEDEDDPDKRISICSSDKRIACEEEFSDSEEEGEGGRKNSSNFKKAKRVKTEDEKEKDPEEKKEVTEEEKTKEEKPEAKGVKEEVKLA

`Cc1cncnc1OCc1ccc(-c2noc(C(F)(F)F)n2)c(F)c1` [Example 244, 4-({3-fluoro-4-[5-(trifluoromethyl)-1,2,4-oxadiazol-3-yl]phenyl}methoxy)-5-methylpyrimidine] was tested, and the pIC50 (HDAC5) was 6.89, the pIC50 (HDAC1) was 5.48 and the pIC50 (HDAC8) was 5.72.
`Fc1cc(COc2cnc3c(c2)COC3)ccc1-c1noc(C(F)(F)F)n1` [Example 245, 3-({3-fluoro-4-[5-(trifluoromethyl)-1,2,4-oxadiazol-3-yl]phenyl}methoxy)-5,7-dihydrofuro[3,4-b]pyridine] showed a pIC50 (HDAC5) of 6.74, a pIC50 (HDAC1) of 5.82 and a pIC50 (HDAC8) of 5.47.
Work on `COc1ncccc1OCc1ccc(-c2noc(C(F)(F)F)n2)c(F)c1` [Example 246, 3-({3-fluoro-4-[5-(trifluoromethyl)-1,2,4-oxadiazol-3-yl]phenyl}methoxy)-2-methoxypyridine] yielded a pIC50 (HDAC5) of 6.92, a pIC50 (HDAC1) of 5.62 and a pIC50 (HDAC8) of 4.35.
Work on `Cc1nc(OCc2ccc(-c3noc(C(F)(F)F)n3)c(F)c2)c2cnn(C)c2n1` [Example 248, 4-({3-fluoro-4-[5-(trifluoromethyl)-1,2,4-oxadiazol-3-yl]phenyl}methoxy)-1,6-dimethyl-1H-pyrazolo[3,4-d]pyrimidine] yielded a pIC50 (HDAC5) of 7.23, a pIC50 (HDAC1) of 5.59 and a pIC50 (HDAC8) of 5.59.
For `Fc1cc(COc2[nH]nc3c2COCC3)ccc1-c1noc(C(F)(F)F)n1` [Example 249, 3-({3-fluoro-4-[5-(trifluoromethyl)-1,2,4-oxadiazol-3-yl]phenyl}methoxy)-2,4,6,7-tetrahydropyrano[4,3-c]pyrazole], the pIC50 (HDAC5) was 7.13, the pIC50 (HDAC1) was 5.51 and the pIC50 (HDAC8) was 5.64.
With `Fc1ccccc1OCc1ccc(-c2noc(C(F)(F)F)n2)cn1` [Example 251, 2-[(2-fluorophenoxy)methyl]-5-[5-(trifluoromethyl)-1,2,4-oxadiazol-3-yl]pyridine] the pIC50 (HDAC5) was 6.72, the pIC50 (HDAC1) was 5.92 and the pIC50 (HDAC8) was 5.46.
For `Nc1cccnc1COCc1ccc(-c2noc(C(F)(F)F)n2)c(F)c1` [Example 252, 2-[({3-fluoro-4-[5-(trifluoromethyl)-1,2,4-oxadiazol-3-yl]phenyl}methoxy)methyl]pyridin-3-amine], the pIC50 (HDAC5) was 6.92, the pIC50 (HDAC1) was 5.59 and the pIC50 (HDAC8) was 5.35.
`Cc1ccc(NCc2ccc(-c3noc(C(F)(F)F)n3)c(F)c2)cn1` [Example 253, N-({3-fluoro-4-[5-(trifluoromethyl)-1,2,4-oxadiazol-3-yl]phenyl}methyl)-6-methylpyridin-3-amine] showed a pIC50 (HDAC5) of 7.19, a pIC50 (HDAC1) of 5.77 and a pIC50 (HDAC8) of 5.41.
With `Fc1cc(CNc2ccc3ccncc3c2)ccc1-c1noc(C(F)(F)F)n1` [Example 254, N-({3-fluoro-4-[5-(trifluoromethyl)-1,2,4-oxadiazol-3-yl]phenyl}methyl)isoquinolin-7-amine] the pIC50 (HDAC5) was 6.85, the pIC50 (HDAC1) was 5.80 and the pIC50 (HDAC8) was 4.35.
Work on `Cn1cnc2cc(COc3nccc(-c4noc(C(F)(F)F)n4)c3Cl)ccc21` [Example 255, 5-[({3-chloro-4-[5-(trifluoromethyl)-1,2,4-oxadiazol-3-yl]pyridin-2-yl}oxy)methyl]-1-methyl-1H-benzimidazole] yielded a pIC50 (HDAC5) of 6.42, a pIC50 (HDAC1) of 5.77 and a pIC50 (HDAC8) of 5.80.
For `CN(C(=O)[C@@H]1CCC(=O)N1c1ccc(-c2noc(C(F)(F)F)n2)c(F)c1)C(C)(C)C` [Example 340, N-tert-butyl-1-{3-fluoro-4-[5-(trifluoromethyl)-1,2,4-oxadiazol-3-yl]phenyl}-N-methyl-5-oxo-L-prolinamide], the pIC50 (HDAC5) was 5.74, the pIC50 (HDAC1) was 4.51 and the pIC50 (HDAC8) was 4.57.
Molecule `CC1(C)CCCCN1C(=O)[C@@H]1CCC(=O)N1c1ccc(-c2noc(C(F)(F)F)n2)c(F)c1` [Example 343, (5S)-5-[(2,2-dimethylpiperidin-1-yl)carbonyl]-1-{3-fluoro-4-[5-(trifluoromethyl)-1,2,4-oxadiazol-3-yl]phenyl}pyrrolidin-2-one] has a pIC50 (HDAC5) of 5.52, a pIC50 (HDAC1) of 4.62 and a pIC50 (HDAC8) of 4.60.
For `O=C(C1CCS(=O)(=O)CC1)N(Cc1ccc(-c2noc(C(F)(F)F)n2)cn1)c1cccc(C(F)(F)F)c1` [Example 456, N-({5-[5-(trifluoromethyl)-1,2,4-oxadiazol-3-yl]pyridin-2-yl}methyl)-N-[3-(trifluoromethyl)phenyl]tetrahydro-2H-thiopyran-4-carboxamide 1,1-dioxide], the pIC50 (HDAC5) was 5.57, the pIC50 (HDAC1) was 6.44 and the pIC50 (HDAC8) was 5.60.
Molecule `O=C1COc2ccccc2N1Cc1ccc(-c2noc(C(F)(F)F)n2)cn1` [Example 462, 4-({5-[5-(trifluoromethyl)-1,2,4-oxadiazol-3-yl]pyridin-2-yl}methyl)-2H-1,4-benzoxazin-3(4H)-one] has a pIC50 (HDAC5) of 8.02, a pIC50 (HDAC1) of 6.82 and a pIC50 (HDAC8) of 5.62.
For `Cc1nc2ccc(F)cc2n1Cc1ccc(-c2noc(C(F)(F)F)n2)cn1` [Example 465, 6-fluoro-2-methyl-1-({5-[5-(trifluoromethyl)-1,2,4-oxadiazol-3-yl]pyridin-2-yl}methyl)-1H-benzimidazole], the pIC50 (HDAC5) was 7.44, the pIC50 (HDAC1) was 6.14 and the pIC50 (HDAC8) was 5.25.
Molecule `O=c1[nH]c2ccccc2n(Cc2ccc(-c3noc(C(F)(F)F)n3)cn2)c1=O` [Example 469, 1-({5-[5-(trifluoromethyl)-1,2,4-oxadiazol-3-yl]pyridin-2-yl}methyl)-1,4-dihydroquinoxaline-2,3-dione] has a pIC50 (HDAC5) of 7.66, a pIC50 (HDAC1) of 7.07 and a pIC50 (HDAC8) of 5.85.
`CC(C)(C)OC(=O)[C@@H]1COCC(=O)N1c1ccc(-c2noc(C(F)(F)F)n2)c(F)c1` [Example 471, tert-butyl (3S)-4-{3-fluoro-4-[5-(trifluoromethyl)-1,2,4-oxadiazol-3-yl]phenyl}-5-oxomorpholine-3-carboxylate] was tested, and the pIC50 (HDAC5) was 7.27, the pIC50 (HDAC1) was 6.06 and the pIC50 (HDAC8) was 5.42.
With `COCc1cccc(CCOc2cc(-c3noc(C(F)(F)F)n3)ccn2)c1` [Example 476, 2-{2-[3-(methoxymethyl)phenyl]ethoxy}-4-[5-(trifluoromethyl)-1,2,4-oxadiazol-3-yl]pyridine] the pIC50 (HDAC5) was 6.11, the pIC50 (HDAC1) was 5.72 and the pIC50 (HDAC8) was 5.52.
`O=C(C1CCS(=O)(=O)CC1)N(Cc1ccc(-c2noc(C(F)(F)F)n2)c(F)c1)c1cccc(C(F)(F)F)c1` [Example 489, N-({3-fluoro-4-[5-(trifluoromethyl)-1,2,4-oxadiazol-3-yl]phenyl}methyl)-1,1-dioxo-N-[3-(trifluoromethyl)phenyl]-llambda~6~-thiane-4-carboxamide] showed a pIC50 (HDAC5) of 6.12, a pIC50 (HDAC1) of 6.02 and a pIC50 (HDAC8) of 5.16.
`O=C(C1CCS(=O)(=O)CC1)N(Cc1ccc(-c2noc(C(F)(F)F)n2)cc1F)c1cccc(C(F)(F)F)c1` [Example 490, N-({2-fluoro-4-[5-(trifluoromethyl)-1,2,4-oxadiazol-3-yl]phenyl}methyl)-1,1-dioxo-N-[3-(trifluoromethyl)phenyl]-llambda~6~-thiane-4-carboxamide] gave a pIC50 (HDAC5) of 6.28, a pIC50 (HDAC1) of 6.30 and a pIC50 (HDAC8) of 5.47.
